Earlier results on 6 compounds are cited in paper PMC7248880, “Preclinical Incorporation Dosimetry of [^18F]FACH—A Novel ^18F-Labeled MCT1/MCT4 Lactate Transporter Inhibitor for Imaging Cancer Metabolism with PET” (Molecules, 2020).

In general, IC50 refers to the concentration that gives 50% inhibition.

Structures are written as SMILES.

For series [1] the following is noted: piglet biokinetic data; cited from earlier work.
The test system of another series is MCT1. More on the design: method as in PMID 31017677, PMID 31017677. As to conditions: cited from earlier work.
The next series relates to MCT4. More on the design: method as in PMID 31017677, PMID 31017677. As to conditions: cited from earlier work.

On to `[18F]c1ccc(C2CC3CCCC2N3)cn1` (single isomer, unassigned; (+)) [(+)-[^18F]flubatine], for which the “ED, Preclinical” value in series [1] was 14.3 μSv/MBq.
With `[18F]CC[C@H]1OC2(CCN(Cc3ccccc3)CC2)c2ccccc21` [(R)-(+)-[^18F]fluspidine], the “ED, Preclinical” value in series [1] is recorded as 14.0 μSv/MBq.
On to `FCC[C@@H]1OC2(CCN(Cc3ccccc3)CC2)c2ccccc21` [(S)-(−)-[^18F]fluspidine], for which, in series [1], the “ED, Preclinical” value is recorded as 12.9 μSv/MBq.
In the case of `[18F]c1ccc([C@@H]2C[C@H]3CCC[C@@H]2N3)cn1` [(−)-[^18F]flubatine], in series [1], the “ED, Preclinical” value is given as 14.7 μSv/MBq.
Take `CCCN(CCCF)c1ccc(/C=C(\C#N)C(=O)O)c(OC)c1` [FACH]: the IC50 in the series with MCT1 is 11 nM; in the series on MCT4, 6.5 nM.
Consider `O=S1(=O)c2ccc([18F])cc2-c2ccc(N3CCN4CCC3CC4)cc21` [[^18F]DBT10], for which, in series [1], the “ED, Preclinical” value is reported as 13.7 μSv/MBq.
